Laboratory results as given in patent US10487116B2, “Immunotherapy against several tumors, such as lung cancer, including NSCLC” (IMMATICS BIOTECHNOLOGIES GMBH, priority 2013, dated 2019).
Read-outs that look alike come from different tables or passages of the source.

Assays:
HLA-A*0201 = HLA-A*0201 (Homo sapiens, UniProt P04439, D140Y/D185E/D98H/E176V/E277Q/G131W/G231S/I119V/I121R/I166T/I218V/L300P/L318F/N151K/N90K/P208A/P217A/Q86G/Q94H/R138H/R169H/T345S); assay: UV-ligand exchange with ELISA of stabilized MHC complexes; assay type: binding; settings: class symbol
Description: Candidate peptides for the vaccines according to the present invention were further tested for immunogenicity by in vitro priming assays. The individual peptide-MHC complexes required for these assays were produced by UV-ligand exchange, where a UV-sensitive peptide is cleaved upon UV-irradiation, and exchanged with the peptide of interest as analyzed. Only peptide candidates that can effectively bind and stabilize the peptide-receptive MHC molecules prevent dissociation of the MHC complexes. To determine the yield of the exchange reaction, an ELISA was performed based on the detection of the light chain (β2m) of stabilized MHC complexes. The assay was performed as generally described in Rodenko et al. (Rodenko B, Toebes M, Hadrup S R, van Esch W J, Molenaar A M, Schumacher T N, Ovaa H. Generation of peptide-MHC class I complexes through UV-mediated ligand exchange. Nat Protoc. 2006; 1(3):1120-32.).
96 well MAXISorp plates (NUNC) were coated over night with 2 ug/ml streptavidin in PBS at room temperature, washed 4× and blocked for 30 min at 37° C. in 2% BSA containing blocking buffer. Refolded HLA-A*0201/MLA-001 monomers served as standards, covering the range of 8-500 ng/ml. Peptide-MHC monomers of the UV-exchange reaction were diluted 100 fold in blocking buffer. Samples were incubated for 1 h at 37° C., washed four times, incubated with 2 ug/ml HRP conjugated anti-β2m for 1 h at 37° C., washed again and detected with TMB solution that is stopped with […]. Absorption was measured at 450 nm.

CD8+ T cells = assay: In vitro T-cell priming assay (aAPCs loaded with peptide/MHC and anti-CD28, pMHC multimer readout); assay type: cell-based, human; settings: for Wells: positive wells
Description: In order to obtain information regarding the immunogenicity of the TUMAPs of the present invention, we performed investigations using an in vitro T-cell priming assay based on repeated stimulations of CD8+ T cells with artificial antigen presenting cells (aAPCs) loaded with peptide/MHC complexes and anti-CD28 antibody.
In order to perform in vitro stimulations by artificial antigen presenting cells loaded with peptide-MHC complex (pMHC) and anti-CD28 antibody, we first isolated CD8+ T cells from fresh HLA-A*02 leukapheresis products via positive selection using CD8 microbeads (Miltenyi Biotec, Bergisch-Gladbach, Germany) of healthy donors obtained from the Transfusion Medicine Tuebingen, Germany, after informed consent.
Isolated CD8+ lymphocytes or PBMCs were incubated until use in T-cell medium (TCM) consisting of RPMI-Glutamax (Invitrogen, Karlsruhe, Germany) supplemented with 10% heat inactivated human AB serum (PAN-Biotech, Aidenbach, Germany), 100 U/ml Penicillin/100 μg/ml Streptomycin (Cambrex, Cologne, Germany), 1 mM sodium pyruvate (CC Pro, Oberdorla, Germany), 20 μg/ml Gentamycin (Cambrex). 2.5 ng/ml IL-7 (PromoCell, Heidelberg, Germany) and 10 U/ml IL-2 (Novartis Pharma, Nurnberg, Germany) were also added to the TCM at this step.
Generation of pMHC/anti-CD28 coated beads, T-cell stimulations and readout was performed in a highly defined in vitro system using four different pMHC molecules per stimulation condition and 8 different pMHC molecules per readout condition.
All pMHC complexes used for aAPC loading and cytometric readout were derived from UV-induced MHC ligand exchange (Rodenko et al., 2006) with minor modifications. In order to determine the amount of pMHC monomer obtained by exchange we performed streptavidin-based sandwich ELISAs according to (Rodenko et al., 2006).
The purified co-stimulatory mouse IgG2a anti human CD28 Ab 9.3 (Jung et al., 1987) was chemically biotinylated using Sulfo-N-hydroxysuccinimidobiotin as recommended by the manufacturer (Perbio, Bonn, Germany). Beads used were 5.6 μm diameter streptavidin coated polystyrene particles (Bangs Laboratories, Ill., USA).
pMHC used for positive and negative control stimulations were A*0201/MLA-001 (peptide […] from modified Melan-A/MART-1) and A*0201/DDX5-001 ([…] from DDX5), respectively.
800.000 beads/200 μl were coated in 96-well plates in the presence of 4×12.5 ng different biotin-pMHC, washed and 600 ng biotin anti-CD28 were added subsequently in a volume of 200 μl. Stimulations were initiated in 96-well plates by co-incubating 1×10^6 CD8+ T cells with 2×10^5 washed coated beads in 200 μl TCM supplemented with 5 ng/ml IL-12 (PromoCell) for 3-4 days at 37° C. Half of the medium was then exchanged by fresh TCM supplemented with 80 U/ml IL-2 and incubating was continued for 3-4 days at 37° C. This stimulation cycle was performed for a total of three times. For the pMHC multimer readout using 8 different pMHC molecules per condition, a two-dimensional combinatorial coding approach was used as previously described (Andersen et al., 2012) with minor modifications encompassing coupling to 5 different fluorochromes. Finally, multimeric analyses were performed by staining the cells with Live/dead near IR dye (Invitrogen, Karlsruhe, Germany), CD8-FITC antibody clone SK1 (BD, Heidelberg, Germany) and fluorescent pMHC multimers. For analysis, a BD LSRII SORP cytometer equipped with appropriate lasers and filters was used. Peptide specific cells were calculated as percentage of total CD8+ cells. Evaluation of multimeric analysis was done using the FlowJo software (Tree Star, Oreg., USA). In vitro priming of specific multimer+CD8+ lymphocytes was detected by comparing to negative control stimulations.

[1] = in vitro immunogenicity, trifluoro-acetate salts of the peptides
[2] = in vitro immunogenicity, responding healthy donors, trifluoro-acetate salts of the peptides

Substance | Exchange yield (HLA-A*0201) | Wells (CD8+ T cells; [1]) | Donors (CD8+ T cells; [2]) | Donors (CD8+ T cells) [%]
SLIEDLILL (listed as Homo sapiens) [SEQ ID NO 12] | ++ (20%-49% = ++) |  |  | 
YLIHFPVSV (listed as Homo sapiens) [SEQ ID NO 13] | + (<20% = +) |  |  | 
SISDVIAQV (listed as Homo sapiens) [SEQ ID NO 28] | +++ (50%-70%, +++) |  |  | 
SLLESNKDLLL (listed as Homo sapiens) [SEQ ID NO 88] | +++ (50%-70%, +++) |  |  | 
32 (KLSWDLIYL; listed as Homo sapiens) [compound 32] |  | + (<20% = +) | +++ (50%-70%, +++) | 
42 (SLWGGDVVL; listed as Homo sapiens) [compound 42] |  | ++ (20%-49% = ++) | ++++ (>70 = ++++) | 100
24 (FLVDGSWSV; listed as Homo sapiens) [compound 24] |  | + (<20% = +) | ++ (20%-49% = ++) | 
19 (AVVEFLTSV; listed as Homo sapiens) [compound 19] |  | + (<20% = +) | ++ (20%-49% = ++) | 
78 (SLYDNQITTV; listed as Homo sapiens) [compound 78] |  | ++ (20%-49% = ++) | ++ (20%-49% = ++) | 
75 (ALYDSVILL; listed as Homo sapiens) [compound 75] |  | + (<20% = +) | ++ (20%-49% = ++) | 
10 (VLSVVEVTL; listed as Homo sapiens) [compound 10] |  | + (<20% = +) | ++ (20%-49% = ++) | 
74 (SLLAQNTSWLL; listed as Homo sapiens) [compound 74] |  | + (<20% = +) | +++ (50%-70%, +++) | 
69 (AMSSKFFLV; listed as Homo sapiens) [compound 69] |  | ++ (20%-49% = ++) | +++ (50%-70%, +++) | 
2 (KIQEMQHFL; listed as Homo sapiens) [compound 2] |  | + (<20% = +) | ++ (20%-49% = ++) | 
18 (TLYPHTSQV; listed as Homo sapiens) [compound 18] |  | + (<20% = +) | +++ (50%-70%, +++) | 
67 (ILQDRLNQV; listed as Homo sapiens) [compound 67] |  | + (<20% = +) | ++ (20%-49% = ++) | 
1 (ILFEINPKL; listed as Homo sapiens) [compound 1] |  | + (<20% = +) | ++ (20%-49% = ++) | 
60 (VVDKTLLLV; listed as Homo sapiens) [compound 60] |  | +++ (50%-70%, +++) | ++++ (>70 = ++++) | 100
85 (KIVDFSYSV; listed as Homo sapiens) [compound 85] |  | ++ (20%-49% = ++) | ++++ (>70 = ++++) | 
46 (TLTNIIHNL; listed as Homo sapiens) [compound 46] |  | + (<20% = +) | +++ (50%-70%, +++) | 
21 (AILDTLYEV; listed as Homo sapiens) [compound 21] |  | ++ (20%-49% = ++) | ++ (20%-49% = ++) | 

Substance | Exchange yield (HLA-A*0201) | Wells (CD8+ T cells; [1]) | Donors (CD8+ T cells; [2]) | Donors (CD8+ T cells) [%]
4 (NLIEKSIYL; listed as Homo sapiens) [compound 4] |  | + (<20% = +) | ++ (20%-49% = ++) | 
31 (AIDGNNHEV; listed as Homo sapiens) [compound 31] |  | + (<20% = +) | +++ (50%-70%, +++) | 
79 (SLAPAGVIRV; listed as Homo sapiens) [compound 79] |  | + (<20% = +) | ++++ (>70 = ++++) | 
7 (TLWYRAPEV; listed as Homo sapiens) [compound 7] |  | ++ (20%-49% = ++) | ++++ (>70 = ++++) | 
57 (GLAEDIDKGEV; listed as Homo sapiens) [compound 57] |  | + (<20% = +) | ++ (20%-49% = ++) | 
87 (RVLPPSALQSV; listed as Homo sapiens) [compound 87] |  | + (<20% = +) | +++ (50%-70%, +++) | 
35 (VLFPNLKTV; listed as Homo sapiens) [compound 35] |  | + (<20% = +) | ++ (20%-49% = ++) | 
61 (TLISRLPAV; listed as Homo sapiens) [compound 61] |  | + (<20% = +) | +++ (50%-70%, +++) | 
30 (KIYNEFISV; listed as Homo sapiens) [compound 30] |  | + (<20% = +) | ++ (20%-49% = ++) | 
39 (RLLDSVSRL; listed as Homo sapiens) [compound 39] |  | + (<20% = +) | ++ (20%-49% = ++) | 
64 (AMLAVLHTV; listed as Homo sapiens) [compound 64] |  | + (<20% = +) | +++ (50%-70%, +++) | 
55 (SLADFMQEV; listed as Homo sapiens) [compound 55] |  | + (<20% = +) | ++ (20%-49% = ++) | 
33 (ALLRTVVSV; listed as Homo sapiens) [compound 33] |  | + (<20% = +) | +++ (50%-70%, +++) | 
92 (HLLEDIAHV; listed as Homo sapiens) [compound 92] |  | + (<20% = +) | ++ (20%-49% = ++) | 
3 (ALDENLHQL; listed as Homo sapiens) [compound 3] |  | + (<20% = +) | ++ (20%-49% = ++) | 
62 (ILFPDIIARA; listed as Homo sapiens) [compound 62] |  | ++ (20%-49% = ++) | ++++ (>70 = ++++) | 
86 (AMATESILHFA; listed as Homo sapiens) [compound 86] |  | + (<20% = +) | ++ (20%-49% = ++) | 
9 (ALMDKEGLTAL; listed as Homo sapiens) [compound 9] |  | + (<20% = +) | + (<20% = +) | 
52 (ALLERGYSL; listed as Homo sapiens) [compound 52] |  | + (<20% = +) | + (<20% = +) | 
71 (KLLEYIEEI; listed as Homo sapiens) [compound 71] |  | + (<20% = +) | +++ (50%-70%, +++) | 
38 (SLHFLILYV; listed as Homo sapiens) [compound 38] |  | + (<20% = +) | ++ (20%-49% = ++) | 
